Tested on: HBsAg
Assay: HBsAg assay
Assay type: cell-based, hepatitis B virus
Conditions: Hepatitis B virus, HepG2.2.15, 144 h, read-out: sAg EC50, μM, HepG2.2.15 cells, day 6
Method in brief: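 HepG2.2.15 cells were treated with serially diluted compounds (0.5% DMSO), with medium and compound renewed after 2-3 days. Secreted HBsAg measured at day 6 by chemiluminescence immunoassay; EC50 from dose-response curves. Viability assessed in parallel by CellTiter-Glo.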

How did the EC50 turn out when `CC(C)[C@@H]1COc2cc(OCCCNC(=O)OC(C)(C)C)c(C3CC3)cc2-c2cc(=O)c(C(=O)O)cn21` [Example 53, (R)-3-(3-((tert-Butoxycarbonyl)amino)propoxy)-2-cyclopropyl-7-isopropyl-11-oxo-6,7-dihydro-11H-benzo[f]pyrido[1,2-d][1,4]oxazepine-10-carboxylic acid] was run?
The EC50 was 0.013 µM.

Which EC50 does the source give for `COCCCOc1cc2c(nc1OC)-c1cc3n[nH]c(=O)c-3cn1[C@H](C(C)C)C2` [Example 153, (S)-6-Isopropyl-2-methoxy-3-(3-methoxypropoxy)-5,10-dihydropyrazolo[3′,4′:4,5]pyrido[1,2-h][1,7]naphthyridin-9(6H)-one] here?
Its EC50 is 0.23 µM.

Which EC50 does the source give for `CCOC(=O)c1cn2c(cc1=NO)-c1cc(Cl)c(OC)cc1OCC2C(C)C` (centres unmarked) [Example 150, Ethyl 2-chloro-11-(hydroxyimino)-7-isopropyl-3-methoxy-6,7-dihydro-11H-benzo[f]pyrido[1,2-d][1,4]oxazepine-10-carboxylate] here?
The EC50 was 24 µM.

Which EC50 does the source give for `CC(C)[C@@H]1COc2cc(OCC(C)(C)CO)c(Cl)cc2-c2cc(=O)c(C(=O)O)cn21` [Example 37, (R)-2-Chloro-3-(3-hydroxy-2,2-dimethylpropoxy)-7-isopropyl-11-oxo-6,7-dihydro-11H-benzo[f]pyrido[1,2-d][1,4]oxazepine-10-carboxylic acid] here?
The EC50 was 0.012 µM.

How did the EC50 turn out when `C=Cc1cc2c(cc1OCCCOC)OC[C@@H](C(C)C)n1cc(C(=O)O)c(=O)cc1-2` [Example 48, (R)-7-Isopropyl-3-(3-methoxypropoxy)-11-oxo-2-vinyl-6,7-dihydro-11H-benzo[f]pyrido[1,2-d][1,4]oxazepine-10-carboxylic acid] was run?
The EC50 was 0.004 µM.

Which EC50 does the source give for `COCCCOc1cc2c(nc1OC)-c1cc(=O)c(C(=O)NO)cn1[C@H](C(C)C)C2` [Example 117, (S)—N-Hydroxy-6-isopropyl-2-methoxy-3-(3-methoxypropoxy)-10-oxo-5,10-dihydro-6H-pyrido[1,2-h][1,7]naphthyridine-9-carboxamide] here?
Its EC50 is 0.054 µM.

How did the EC50 turn out when `COCCCOc1cc2c(nc1OC)-c1cc(=O)c(-c3nnn[nH]3)cn1[C@H](C(C)C)C2` [Example 115, (S)-6-Isopropyl-2-methoxy-3-(3-methoxypropoxy)-9-(1H-tetrazol-5-yl)-5,6-dihydro-10H-pyrido[1,2-h][1,7]naphthyridin-10-one] was run?
Its EC50 is 0.09 µM.

For `COCCCOc1cc2c(cc1Cl)-c1cc(=O)c(NS(=O)(=O)CC(F)(F)F)cn1C(C(C)(C)C)C2` (centres unmarked) [Example 127, N-[6-Tert-butyl-10-chloro-9-(3-methoxypropoxy)-2-oxo-6H,7H-pyrido[2,1-a]isoquinolin-3-yl]-2,2,2-trifluoroethanesulfonamide], which EC50 is on record?
The EC50 was 15 µM.

With `CC(C)C1Cc2sccc2-c2cc(=O)c(C(=O)O)cn21` (centres unmarked) [Example 84, 5-Isopropyl-9-oxo-4,9-dihydro-5H-thieno[3,2-a]quinolizine-8-carboxylic acid] as the compound, how does the EC50 read?
The EC50 was 3.2 µM.

`COCCCOc1cc2c(cc1Cl)-c1cc(=O)c(Nc3ncccn3)cn1C(C(C)(C)C)C2` (centres unmarked) [Example 129, 6-(Tert-butyl)-10-chloro-9-(3-methoxypropoxy)-3-(pyrimidin-2-ylamino)-6,7-dihydro-2H-pyrido[2,1-a]isoquinolin-2-one] was tested. Which EC50 did it give?
Its EC50 is 5.9 µM.

For `COc1cc2c(cc1OC)-c1cc(=O)c(C(=O)O)cn1C(C(C)C)CC2` (centres unmarked) [Example 19, 6-Isopropyl-10,11-dimethoxy-2-oxo-2,6,7,8-tetrahydrobenzo[c]pyrido[1,2-a]azepine-3-carboxylic acid], which EC50 is on record?
Its EC50 is 0.027 µM.

How did the EC50 turn out when `CC(C)COc1cc2c(cc1C1CC1)-c1cc(=O)c(C(=O)O)cn1[C@H](C(C)C)CO2` [Example 44, (R)-2-Cyclopropyl-3-isobutoxy-7-isopropyl-11-oxo-6,7-dihydro-11H-benzo[f]pyrido[1,2-d][1,4]oxazepine-10-carboxylic acid] was run?
The EC50 was 0.006 µM.

Which EC50 does the source give for `COCCCOc1cc2c(cc1C1CC1)-c1cc(=O)c(C(=O)O)cn1[C@H](C(C)C)CO2` [Example 45, (R)-2-Cyclopropyl-7-isopropyl-3-(3-methoxypropoxy)-11-oxo-6,7-dihydro-11H-benzo[f]pyrido[1,2-d][1,4]oxazepine-10-carboxylic acid] here?
The EC50 was 0.006 µM.

Which EC50 does the source give for `COCCCOc1cc2c(nc1OC)-c1cc(=O)c(-c3n[nH]c(=S)[nH]3)cn1[C@H](C(C)C)C2` [Example 109, (S)-6-Isopropyl-2-methoxy-3-(3-methoxypropoxy)-9-(5-thioxo-4,5-dihydro-1H-1,2,4-triazol-3-yl)-5,6-dihydro-10H-pyrido[1,2-h][1,7]naphthyridin-10-one] here?
Its EC50 is 0.029 µM.

For `COc1cc2c(cc1Cl)-c1cc(=O)c(C(=O)O)cn1CC(C(C)(C)C)O2` (centres unmarked) [Example 12, 6-(Tert-butyl)-2-chloro-3-methoxy-11-oxo-6,7-dihydro-11H-benzo[f]pyrido[1,2-d][1,4]oxazepine-10-carboxylic acid], which EC50 is on record?
Its EC50 is 47 µM.

With `COCCCOc1cc2c(cc1Cl)-c1cc(=O)c(N(c3ncccn3)c3ncccn3)cn1C(C(C)(C)C)C2` (centres unmarked) [Example 130, 6-(Tert-butyl)-10-chloro-3-(di(pyrimidin-2-yl)amino)-9-(3-methoxypropoxy)-6,7-dihydro-2H-pyrido[2,1-a]isoquinolin-2-one] as the compound, how does the EC50 read?
The EC50 was 0.91 µM.

For `COc1cc2c(cc1Cl)-c1cc(=O)c(C(=O)O)cn1[C@H](C(C)C)CO2` (single isomer, unassigned) [Example 3], which EC50 is on record?
Its EC50 is 0.032 µM.

Which EC50 does the source give for `COc1cc2c(cc1Cl)-c1cc(=O)c(C(=O)O)cn1C(C1CCC1)CO2` (centres unmarked) [Example 10, 2-Chloro-7-cyclobutyl-3-methoxy-11-oxo-6,7-dihydro-11H-benzo[f]pyrido[1,2-d][1,4]oxazepine-10-carboxylic acid] here?
The EC50 was 0.24 µM.

With `CC(C)(C)C1Cc2cc3c(cc2-c2cc(=O)c(C(=O)O)cn21)OCC1(COC1)CO3` (centres unmarked) [Example 93, 6′-(Tert-butyl)-2′-oxo-6′,7′-dihydro-2′H,10′H,12′H-spiro[oxetane-3,11′-[1,4]dioxepino[2,3-g]pyrido[2,1-a]isoquinoline]-3′-carboxylic acid] as the compound, how does the EC50 read?
Its EC50 is 0.42 µM.

`CCc1cc2c(cc1OCC(C)C)OC[C@@H](C(C)C)n1cc(C(=O)O)c(=O)cc1-2` [Example 52, (R)-2-Ethyl-3-isobutoxy-7-isopropyl-11-oxo-6,7-dihydro-11H-benzo[f]pyrido[1,2-d][1,4]oxazepine-10-carboxylic acid] was tested. Which EC50 did it give?
The EC50 was 0.007 µM.

How did the EC50 turn out when `COCCCOc1cc2c(nc1Cl)-c1cc(=O)c(C(=O)O)cn1C1(CCCCC1)CO2` [Example 69, 2′-Chloro-3′-(3-methoxypropoxy)-1′-oxo-6′H,11′H-spiro[cyclohexane-1,7′-dipyrido[1,2-d:2′,3′-f][1,4]oxazepine]-10′-carboxylic acid] was run?
Its EC50 is 0.021 µM.

For `COc1ccc2c(c1)OC[C@@H](C(C)C)n1cc(C(=O)O)c(=O)cc1-2` [Example 17, (R)-7-Isopropyl-3-methoxy-11-oxo-6,7-dihydro-11H-benzo[f]pyrido[1,2-d][1,4]oxazepine-10-carboxylic acid], which EC50 is on record?
The EC50 was 0.88 µM.

For `C=C1COc2cc3c(cc2OC1)-c1cc(=O)c(C(=O)O)cn1C(C(C)(C)C)C3` (centres unmarked) [Example 98, 6-(Tert-butyl)-11-methylene-2-oxo-6,7,11,12-tetrahydro-2H,10H-[1,4]dioxepino[2,3-g]pyrido[2,1-a]isoquinoline-3-carboxylic acid], which EC50 is on record?
The EC50 was 0.1 µM.

Which EC50 does the source give for `COCCCOc1cc2c(nc1OC)-c1cc(=O)c(C(=O)NNC(C)=O)cn1[C@H](C(C)C)C2` [Example 154, (6S)—N′-Acetyl-6-isopropyl-2-methoxy-3-(3-methoxypropoxy)-10-oxo-5H,6H-pyrido[1,2-h]1,7-naphthyridine-9-carbohydrazide] here?
The EC50 was 0.029 µM.

How did the EC50 turn out when `COCCCOc1cc2c(cc1Cl)-c1cc(=O)c(-c3ccccn3)cn1C(C(C)(C)C)C2` (centres unmarked) [Example 133, 6-(Tert-butyl)-10-chloro-9-(3-methoxypropoxy)-3-(pyridin-2-yl)-6,7-dihydro-2H-pyrido[2,1-a]isoquinolin-2-one] was run?
The EC50 was 4 µM.

With `COCCCN(C)c1cc2c(cc1Cl)-c1cc(=O)c(C(=O)O)cn1[C@H](C(C)C)CO2` [Example 63, (R)-2-Chloro-7-isopropyl-3-((3-methoxypropyl)(methyl)amino)-11-oxo-6,7-dihydro-11H-benzo[f]pyrido[1,2-d][1,4]oxazepine-10-carboxylic acid] as the compound, how does the EC50 read?
The EC50 was 0.03 µM.

How did the EC50 turn out when `COc1cc2c(cc1Cl)-c1cc(=O)c(C(=O)O)cn1C1CCCC1O2` (centres unmarked) [Example 14, 12-Chloro-11-methoxy-2-oxo-5a,7,8,8a-tetrahydro-2H,6H-benzo[f]cyclopenta[b]pyrido[1,2-d][1,4]oxazepine-3-carboxylic acid] was run?
The EC50 was 0.56 µM.

For `COCCCOc1cc2c(nc1OC)-c1cc(=O)c(-c3nnc(C)s3)cn1[C@H](C(C)C)C2` [Example 108, (S)-6-Isopropyl-2-methoxy-3-(3-methoxypropoxy)-9-(5-methyl-1,3,4-thiadiazol-2-yl)-5,6-dihydro-10H-pyrido[1,2-h][1,7]naphthyridin-10-one], which EC50 is on record?
The EC50 was 0.045 µM.

Same assay, conditions: read-out: sAg EC50; HepG2.2.15 cells, day 6

`COc1cc2c(nc1OC)-c1cc(=O)c(C(=O)O)cn1C(C(C)C)C2` (single isomer, unassigned) [Example 24, 6-Isopropyl-2,3-dimethoxy-10-oxo-5,10-dihydro-6H-pyrido[1,2-h][1,7]naphthyridine-9-carboxylic acid] was tested. Which EC50 did it give?
The EC50 was 0.25 µM.

For `COCCCOc1cc2c(nc1OC)-c1cc(=O)c(C(=O)O)cn1C(C)(C(C)C)C2` (single isomer, unassigned) [Example 156, 6-Isopropyl-2-methoxy-3-(3-methoxypropoxy)-6-methyl-10-oxo-5,10-dihydro-6H-pyrido[1,2-h][1,7]naphthyridine-9-carboxylic acid], which EC50 is on record?
The EC50 was 0.001 µM.

How did the EC50 turn out when `CC(C)(C)C1Cc2cc3c(cc2-c2cc(=O)c(C(=O)O)cn21)OCCCO3` (single isomer, unassigned) [Example 91, 6-(Tert-butyl)-2-oxo-6,7,11,12-tetrahydro-2H,10H-[1,4]dioxepino[2,3-g]pyrido[2,1-a]isoquinoline-3-carboxylic acid] was run?
The EC50 was 0.94 µM.

How did the EC50 turn out when `COCCCOc1cc2c(nc1OC)-c1cc(=O)c(C(=O)O)cn1C(C)(C(C)(C)C)C2` (single isomer, unassigned) [Example 159, 6-(Tert-butyl)-2-methoxy-3-(3-methoxypropoxy)-6-methyl-10-oxo-5,10-dihydro-6H-pyrido[1,2-h][1,7]naphthyridine-9-carboxylic acid] was run?
Its EC50 is 0.0009 µM.

From US11013726B2 (Arbutus Biopharma Corporation, priority 2016, dated 2021)
